ChEMBL document CHEMBL5705899 (Biochem J, 2014)
Activity calls are given as the source filed them. The calls are words filed in the database; no cut-off is given here.

Legend:
[1] = target: Serine/threonine-protein kinase 16 (Homo sapiens) (UniProt O75716); test: Inhibition of recombinant human N-terminal GST-tagged MPSK1 (1 to 305 residues) expressed in Escherichia coli assessed as remaining activity at 1 uM using RRHYYYDTHTNTYYLRTFGHNTRR as substrate incubated for 30 mins in presence of [gamma-33P]ATP by filter binding method relative to control
[2] = target: Testis-specific serine/threonine-protein kinase 1 (Homo sapiens) (UniProt Q9BXA7); test: Inhibition of recombinant human N-terminal GST-tagged TSSK1 (1 to 367 residues) expressed in Escherichia coli assessed as remaining activity at 1 uM using KKKVSRSGLYRSPSMPENLNRPR as substrate incubated for 30 mins in presence of [gamma-33P]ATP by filter binding method relative to control
[3] = target: Calcium/calmodulin-dependent protein kinase type 1 (Homo sapiens) (UniProt Q14012); test: Inhibition of recombinant human N-terminal GST-tagged CAMK1alpha (2 to 369 residues) expressed in Escherichia coli assessed as remaining activity at 1 uM using YLRRRLSDSNF as substrate incubated for 30 mins in presence of [gamma-33P]ATP by filter binding method relative to control
[4] = target: MAP kinase-activated protein kinase 3 (Homo sapiens) (UniProt Q16644); test: Inhibition of recombinant human N-terminal GST-tagged MAPKAPK3 (2 to 382 residues) expressed in Escherichia coli assessed as remaining activity at 1 uM using KKLNRTLSVA as substrate incubated for 30 mins in presence of [gamma-33P]ATP by filter binding method relative to control
[5] = target: NUAK family SNF1-like kinase 1 (Homo sapiens) (UniProt O60285); test: Inhibition of recombinant human N-terminal His6-tagged NUAK1 (2 to 660 residues) expressed in baculovirus infected Sf21 cells assessed as remaining activity at 1 uM using ALNRTSSDSALHRRR as substrate incubated for 30 mins in presence of [gamma-33P]ATP by filter binding method relative to control
[6] = target: MAP kinase-activated protein kinase 2 (Homo sapiens) (UniProt P49137); test: Inhibition of recombinant human N-terminal GST/C-terminal Myc-tagged MAPKAPK2 (46 to 400 residues) expressed in Escherichia coli assessed as remaining activity at 1 uM using KKLNRTLSVA as substrate incubated for 30 mins in presence of [gamma-33P]ATP by filter binding method relative to control
[7] = target: Insulin receptor (Homo sapiens) (UniProt P06213); test: Inhibition of recombinant human N-terminal His6-tagged IR (1001 to 1382 residues) expressed in baculovirus infected Sf21 cells assessed as remaining activity at 1 uM using KKSRGDYMTMQIG as substrate incubated for 30 mins in presence of [gamma-33P]ATP by filter binding method relative to control
[8] = target: Serine/threonine-protein kinase PINK1, mitochondrial (Homo sapiens) (UniProt Q9BXM7); test: Inhibition of recombinant human N-terminal MBP-tagged PINK1 (1 to 570 residues) expressed in Escherichia coli assessed as remaining activity at 1 uM using KKSRGDYMTMQIG as substrate incubated for 30 mins in presence of [gamma-33P]ATP by filter binding method relative to control
[9] = target: MAP kinase-activated protein kinase 5 (Homo sapiens) (UniProt Q8IW41); test: Inhibition of recombinant human His6-tagged PRAK (1 to 471 residues) expressed in baculovirus infected Sf21 cells assessed as remaining activity at 1 uM using phosphorylase b peptide as substrate incubated for 30 mins in presence of [gamma-33P]ATP by filter binding method relative to control
[10] = target: Myosin light chain kinase, smooth muscle (Homo sapiens) (UniProt Q15746); test: Inhibition of recombinant human N-terminal GST-tagged SmMLCK (475 to 838 residues) expressed in Escherichia coli assessed as remaining activity at 1 uM using KKRPQRATSNVFA as substrate incubated for 30 mins in presence of [gamma-33P]ATP by filter binding method relative to control
[11] = target: AMPK alpha1/beta2/gamma1 (Homo sapiens) (UniProt O43741+P54619+Q13131); test: Inhibition of recombinant N-terminal His6-tagged human AMPKalpha1 (11 to 559 residues)/AMPKbeta2 (1 to 272 residues)/AMPKgamma1 (1 to 331 residues) expressed in baculovirus infected Sf21 cells assessed as remaining activity at 1 uM using SAMS as substrate incubated for 30 mins in presence of [gamma-33P]ATP relative to control
[12] = target: Homeodomain-interacting protein kinase 1 (Homo sapiens) (UniProt Q86Z02); test: Inhibition of human HIPK1 at 1 uM using RBER-CHKtide as substrate in presence of 33P-ATP by ProQinase assay
[13] = target: Cyclin-dependent kinase 4/cyclin D1 (Homo sapiens) (UniProt P11802+P24385); test: Inhibition of human CDK4/CyclinD1 at 1 uM using RBER-CHKtide, as substrate in presence of 33P-ATP by ProQinase assay; assay type: protein-complex assay
[14] = target: Bone morphogenetic protein receptor type-1A (Homo sapiens) (UniProt P36894); test: Inhibition of human BMPR1A at 1 uM using casein as substrate in presence of 33P-ATP by ProQinase assay
[15] = target: Serine/threonine-protein kinase mTOR (Homo sapiens) (UniProt P42345); test: Inhibition of human mTOR at 1 uM using casein as substrate in presence of 33P-ATP by ProQinase assay
[16] = target: Casein kinase II subunit alpha (Homo sapiens) (UniProt P68400); test: Inhibition of human CK2alpha1 at 1 uM using casein as substrate in presence of 33P-ATP by ProQinase assay
[17] = target: Homeodomain-interacting protein kinase 3 (Homo sapiens) (UniProt Q9H422); test: Inhibition of human HIPK3 at 1 uM using RBER-CHKtide as substrate in presence of 33P-ATP by ProQinase assay
[18] = target: Serine/threonine-protein kinase Nek3 (Homo sapiens) (UniProt P51956); test: Inhibition of human NEK3 at 1 uM using RBER-CHKtide as substrate in presence of 33P-ATP by ProQinase assay
[19] = test system: Dual specificity mitogen-activated protein kinase kinase 6 (Homo sapiens), P52564 [S207D,T211D]; test: Inhibition of human MKK6 S207D/T211D double mutant at 1 uM using p38-alpha KA as substrate in presence of 33P-ATP by ProQinase assay
[20] = target: Death-associated protein kinase 1 (Homo sapiens) (UniProt P53355); test: Inhibition of human DAPK1 at 1 uM using RBER-GSK3 as substrate in presence of 33P-ATP by ProQinase assay
[21] = target: Serine/threonine-protein kinase 17A (Homo sapiens) (UniProt Q9UEE5); test: Inhibition of human STK17A at 1 uM using RB-CTF as substrate in presence of 33P-ATP by ProQinase assay
[22] = target: Phosphatidylinositol 4-phosphate 5-kinase type-1 alpha (Homo sapiens, UniProt Q99755); test: Inhibition of PIP5K1A (unknown origin) using D-myo-PIP as substrate incubated for 45 mins by ADP-Glo assay

Homeodomain-interacting protein kinase 1 (Homo sapiens), sequence (Q86Z02 whole entry, looked up): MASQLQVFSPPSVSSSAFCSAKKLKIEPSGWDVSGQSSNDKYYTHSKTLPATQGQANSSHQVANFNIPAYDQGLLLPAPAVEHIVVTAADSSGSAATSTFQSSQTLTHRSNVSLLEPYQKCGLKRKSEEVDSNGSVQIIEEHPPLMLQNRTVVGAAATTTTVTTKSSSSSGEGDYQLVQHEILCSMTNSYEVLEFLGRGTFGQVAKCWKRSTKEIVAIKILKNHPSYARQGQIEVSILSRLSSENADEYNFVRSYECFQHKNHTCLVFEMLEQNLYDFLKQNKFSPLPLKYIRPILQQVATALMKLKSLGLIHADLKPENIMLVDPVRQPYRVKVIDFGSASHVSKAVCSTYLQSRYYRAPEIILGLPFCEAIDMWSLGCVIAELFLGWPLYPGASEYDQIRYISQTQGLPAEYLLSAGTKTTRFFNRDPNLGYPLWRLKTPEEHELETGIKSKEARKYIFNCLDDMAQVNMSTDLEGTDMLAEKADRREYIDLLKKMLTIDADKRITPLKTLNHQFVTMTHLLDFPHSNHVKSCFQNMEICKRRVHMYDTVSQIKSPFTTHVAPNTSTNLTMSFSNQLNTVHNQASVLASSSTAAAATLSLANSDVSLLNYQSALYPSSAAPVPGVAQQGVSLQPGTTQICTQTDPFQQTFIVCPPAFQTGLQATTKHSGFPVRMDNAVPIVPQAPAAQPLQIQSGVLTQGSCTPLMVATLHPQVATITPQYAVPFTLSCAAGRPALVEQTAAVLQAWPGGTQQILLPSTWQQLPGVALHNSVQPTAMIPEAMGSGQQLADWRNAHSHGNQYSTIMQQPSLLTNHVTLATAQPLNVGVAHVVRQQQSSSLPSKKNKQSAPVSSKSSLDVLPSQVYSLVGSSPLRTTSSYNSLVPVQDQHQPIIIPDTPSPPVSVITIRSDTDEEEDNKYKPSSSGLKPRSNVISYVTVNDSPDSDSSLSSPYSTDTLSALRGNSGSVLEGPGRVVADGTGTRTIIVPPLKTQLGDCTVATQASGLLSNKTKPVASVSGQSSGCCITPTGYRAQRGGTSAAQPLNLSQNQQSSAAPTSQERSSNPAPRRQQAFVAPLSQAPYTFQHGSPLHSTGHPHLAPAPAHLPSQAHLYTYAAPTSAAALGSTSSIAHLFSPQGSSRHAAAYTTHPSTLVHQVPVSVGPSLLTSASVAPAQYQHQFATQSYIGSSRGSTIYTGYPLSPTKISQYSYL
Calcium/calmodulin-dependent protein kinase type 1 (Homo sapiens), sequence (Q14012 whole entry, looked up, the tested form may be a part): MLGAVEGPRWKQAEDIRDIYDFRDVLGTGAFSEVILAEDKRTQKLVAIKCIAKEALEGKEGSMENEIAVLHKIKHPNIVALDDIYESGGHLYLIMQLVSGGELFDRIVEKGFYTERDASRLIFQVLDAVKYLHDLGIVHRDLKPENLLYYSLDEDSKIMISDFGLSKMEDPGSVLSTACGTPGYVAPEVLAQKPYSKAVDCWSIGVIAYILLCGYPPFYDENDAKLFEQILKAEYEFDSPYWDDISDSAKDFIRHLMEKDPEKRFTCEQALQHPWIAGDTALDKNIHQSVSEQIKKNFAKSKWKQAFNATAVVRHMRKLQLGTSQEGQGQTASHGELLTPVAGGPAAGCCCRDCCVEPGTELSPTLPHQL
Bone morphogenetic protein receptor type-1A (Homo sapiens), sequence (P36894 whole entry): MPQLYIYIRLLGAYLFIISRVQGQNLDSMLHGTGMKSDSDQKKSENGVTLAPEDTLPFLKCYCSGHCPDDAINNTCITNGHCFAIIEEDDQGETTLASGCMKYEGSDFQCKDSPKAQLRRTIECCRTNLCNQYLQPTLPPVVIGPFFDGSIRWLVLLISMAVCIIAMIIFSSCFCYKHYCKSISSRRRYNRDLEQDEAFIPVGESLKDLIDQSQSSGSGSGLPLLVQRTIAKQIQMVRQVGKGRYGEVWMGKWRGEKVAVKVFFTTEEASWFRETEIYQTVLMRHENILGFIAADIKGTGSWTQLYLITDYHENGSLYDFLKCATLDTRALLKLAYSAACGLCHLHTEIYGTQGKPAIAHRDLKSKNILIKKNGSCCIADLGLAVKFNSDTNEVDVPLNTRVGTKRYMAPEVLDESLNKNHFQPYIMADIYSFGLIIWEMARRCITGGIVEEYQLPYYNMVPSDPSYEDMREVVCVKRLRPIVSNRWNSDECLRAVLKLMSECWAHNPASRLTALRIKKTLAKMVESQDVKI
Insulin receptor (Homo sapiens), sequence (P06213 28-758 limits assumed): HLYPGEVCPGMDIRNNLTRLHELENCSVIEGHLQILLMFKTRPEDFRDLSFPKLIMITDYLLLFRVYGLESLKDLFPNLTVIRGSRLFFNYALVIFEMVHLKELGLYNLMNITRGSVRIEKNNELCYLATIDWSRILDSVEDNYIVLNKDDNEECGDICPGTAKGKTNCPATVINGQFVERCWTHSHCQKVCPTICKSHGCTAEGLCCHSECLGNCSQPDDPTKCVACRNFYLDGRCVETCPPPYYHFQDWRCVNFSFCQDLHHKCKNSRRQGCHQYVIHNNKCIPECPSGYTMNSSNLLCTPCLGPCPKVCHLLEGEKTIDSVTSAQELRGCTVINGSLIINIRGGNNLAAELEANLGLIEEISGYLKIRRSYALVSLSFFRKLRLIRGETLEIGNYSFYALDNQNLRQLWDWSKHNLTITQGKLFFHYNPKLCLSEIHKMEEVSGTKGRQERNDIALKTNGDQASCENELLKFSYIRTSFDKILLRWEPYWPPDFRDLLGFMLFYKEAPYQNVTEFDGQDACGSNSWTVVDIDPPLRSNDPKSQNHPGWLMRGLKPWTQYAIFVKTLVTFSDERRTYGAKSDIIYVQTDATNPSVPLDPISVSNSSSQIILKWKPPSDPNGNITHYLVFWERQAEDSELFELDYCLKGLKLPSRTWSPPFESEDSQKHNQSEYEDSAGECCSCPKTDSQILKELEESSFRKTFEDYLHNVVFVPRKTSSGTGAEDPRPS
Insulin receptor (Homo sapiens), sequence (P06213 763-1382 limits assumed): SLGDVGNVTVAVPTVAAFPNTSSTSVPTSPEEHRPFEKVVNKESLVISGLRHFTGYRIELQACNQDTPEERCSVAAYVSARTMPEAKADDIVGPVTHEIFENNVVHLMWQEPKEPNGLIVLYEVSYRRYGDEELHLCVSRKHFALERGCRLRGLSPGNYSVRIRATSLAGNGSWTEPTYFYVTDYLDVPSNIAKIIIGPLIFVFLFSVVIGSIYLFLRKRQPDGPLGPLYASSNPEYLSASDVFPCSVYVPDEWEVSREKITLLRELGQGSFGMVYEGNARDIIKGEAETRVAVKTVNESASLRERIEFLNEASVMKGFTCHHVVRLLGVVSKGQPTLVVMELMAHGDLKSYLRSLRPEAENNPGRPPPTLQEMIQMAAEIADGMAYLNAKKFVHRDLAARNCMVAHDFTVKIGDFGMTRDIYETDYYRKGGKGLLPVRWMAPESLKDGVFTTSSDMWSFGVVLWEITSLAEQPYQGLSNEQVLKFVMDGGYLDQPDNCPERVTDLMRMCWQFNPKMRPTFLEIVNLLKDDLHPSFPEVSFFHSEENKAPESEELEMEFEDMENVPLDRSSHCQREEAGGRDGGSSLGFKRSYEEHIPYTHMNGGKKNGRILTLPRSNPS
Serine/threonine-protein kinase 17A (Homo sapiens), sequence (Q9UEE5 whole entry): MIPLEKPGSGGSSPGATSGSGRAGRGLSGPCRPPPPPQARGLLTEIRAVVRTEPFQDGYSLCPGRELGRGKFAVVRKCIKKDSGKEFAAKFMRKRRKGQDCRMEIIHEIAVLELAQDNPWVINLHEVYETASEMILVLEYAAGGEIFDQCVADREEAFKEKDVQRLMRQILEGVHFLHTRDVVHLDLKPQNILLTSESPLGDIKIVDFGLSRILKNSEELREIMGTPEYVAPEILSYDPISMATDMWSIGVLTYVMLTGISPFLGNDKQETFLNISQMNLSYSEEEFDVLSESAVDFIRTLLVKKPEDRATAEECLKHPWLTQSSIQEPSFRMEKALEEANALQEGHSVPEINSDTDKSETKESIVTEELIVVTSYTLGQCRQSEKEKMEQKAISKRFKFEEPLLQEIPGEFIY
Serine/threonine-protein kinase PINK1, mitochondrial (Homo sapiens), sequence (Q9BXM7 whole entry, the tested form may be a part): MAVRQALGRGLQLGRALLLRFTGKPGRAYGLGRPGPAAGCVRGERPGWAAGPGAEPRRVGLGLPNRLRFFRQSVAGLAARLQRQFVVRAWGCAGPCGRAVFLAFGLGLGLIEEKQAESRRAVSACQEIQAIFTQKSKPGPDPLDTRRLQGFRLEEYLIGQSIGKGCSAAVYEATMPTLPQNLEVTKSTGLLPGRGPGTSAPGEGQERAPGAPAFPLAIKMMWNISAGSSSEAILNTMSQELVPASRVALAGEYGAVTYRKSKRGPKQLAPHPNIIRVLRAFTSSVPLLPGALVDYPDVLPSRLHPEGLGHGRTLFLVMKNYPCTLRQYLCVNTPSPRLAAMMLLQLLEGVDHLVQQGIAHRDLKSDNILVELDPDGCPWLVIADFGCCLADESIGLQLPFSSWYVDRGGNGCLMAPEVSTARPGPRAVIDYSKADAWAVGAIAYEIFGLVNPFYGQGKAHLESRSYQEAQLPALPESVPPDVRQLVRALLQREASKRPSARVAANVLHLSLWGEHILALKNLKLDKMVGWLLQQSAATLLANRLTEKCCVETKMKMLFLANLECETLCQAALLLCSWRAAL
Casein kinase II subunit alpha (Homo sapiens), sequence (P68400 whole entry, looked up): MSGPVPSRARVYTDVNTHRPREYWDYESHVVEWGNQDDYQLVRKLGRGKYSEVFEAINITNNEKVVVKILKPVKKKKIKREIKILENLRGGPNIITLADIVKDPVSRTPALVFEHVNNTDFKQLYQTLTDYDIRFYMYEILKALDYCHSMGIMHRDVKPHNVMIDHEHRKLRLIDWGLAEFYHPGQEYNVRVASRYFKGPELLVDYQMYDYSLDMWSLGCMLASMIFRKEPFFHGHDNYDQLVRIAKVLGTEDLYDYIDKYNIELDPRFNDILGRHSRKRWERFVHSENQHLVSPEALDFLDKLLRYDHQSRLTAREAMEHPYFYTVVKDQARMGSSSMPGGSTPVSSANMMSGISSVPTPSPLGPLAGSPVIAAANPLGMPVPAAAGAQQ

Compound: CC(C)(O)CNc1ncc(-c2ccnc(Nc3ccnc(Cl)c3)n2)c(CC2CC2)n1
- Activity [1]: 118%
- Activity [2]: 118%
- Activity [3]: 116%
- Activity [4]: 115%
- Activity [5]: 112%
- Activity [6]: 110%
- Activity [7]: 109%
- Activity [8]: 109%
- Activity [9]: 105%
- Activity [10]: 97%
- Activity [11]: 96%
- inhibition [12]: inactive
- inhibition [13]: inactive
- inhibition [14]: inactive
- inhibition [15]: inactive
- inhibition [16]: inactive
- inhibition [17]: inactive
- inhibition [18]: inactive
- inhibition [19]: inactive
- inhibition [20]: inactive
- inhibition [21]: inactive
- IC50 [22]: 11.3 µM
